From patent publication US20230015478A1, “GLP-1 RECEPTOR AGONISTS HAVING IMPROVED PHARMACOLOGICAL AND DRUG DELIVERY PROPERTIES” (priority 2021, published 2023) come the findings set out here.

Read-outs that look alike come from different tables or passages of the source. Numbered stars: 1 amine (or outer) side, 2 acyl side, 3 side chain; on linkers, the order of the positions; unused ones are H or OH. Square brackets hold non-standard residues; d marks the D form. Side chains are listed from the residue outwards. Peptide text beside a SMILES is read from it. * marks the point of attachment. Dap(Nα-HOOC(CH2)16CO)OH = O=C(O)CCCCCCCCCCCCCCCCC(=O)N[C@@H](CN*)C(=O)O; Phe(3-CF3) = N[C@@H](Cc1cccc(C(F)(F)F)c1)C(=O)O; Bip = N[C@@H](Cc1ccc(-c2ccccc2)cc1)C(=O)O; C18 diacid = O=C(O)CCCCCCCCCCCCCCCCC(=O)*; αMePhe(2-F) = C[C@](N)(Cc1ccccc1F)C(=O)O; γGlu = O=C(O)[C@H](CCC(=O)[*:2])N[*:1]; hPhe = N[C@@H](CCc1ccccc1)C(=O)O; αMeP = C[C@@]1(C(=O)O)CCCN1; AEEA = NCCOCCOCC(=O)O; Aib = CC(C)(N)C(=O)O

The assay deals with T1, hGLP1 receptor (Homo sapiens, UniProt P43220).
T1 construct: expressed in transfected cells; host or cells: HEK (human embryonic kidney) cells co-expressing hGLP1 receptor and CRE-Luciferase
T1 sequence (P43220 24-463): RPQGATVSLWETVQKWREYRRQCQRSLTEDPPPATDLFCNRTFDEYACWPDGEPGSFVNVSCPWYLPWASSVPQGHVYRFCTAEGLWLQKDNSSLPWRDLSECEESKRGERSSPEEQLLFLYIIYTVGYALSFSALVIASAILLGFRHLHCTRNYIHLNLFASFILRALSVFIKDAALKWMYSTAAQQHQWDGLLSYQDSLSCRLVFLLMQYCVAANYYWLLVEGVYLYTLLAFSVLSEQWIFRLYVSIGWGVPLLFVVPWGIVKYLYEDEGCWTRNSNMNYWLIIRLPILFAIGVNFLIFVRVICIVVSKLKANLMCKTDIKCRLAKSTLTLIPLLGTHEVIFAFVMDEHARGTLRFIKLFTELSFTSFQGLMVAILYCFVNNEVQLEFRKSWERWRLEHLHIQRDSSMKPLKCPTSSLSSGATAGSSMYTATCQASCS
Description: cAMP HTRF agonist assay in HEK cells co-expressing hGLP1 receptor and CRE-Luciferase. In kind it is cell-based. The procedure, abridged:
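HEK cells co-expressing hGLP1R and CRE-luciferase, 1000 cells/well in DPBS with 500 μM IBMX, exposed to peptides or exendin-4 reference for 30 min; 11-point 1:3 series from top 1.0 μM. cAMP measured by HTRF (665/615 nm) after 1 h at room temperature; EC50 from 4-parameter logistic fit.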
(In general: TR-FRET usually uses a lanthanide donor and a delayed reading to cut background.)

Setting [1] is: cAMP EC50, nM (0.1% albumin), Table 6, 0.1% albumin.
Setting [2] is: cAMP EC50, nM (0.1% albumin), Table 4, 0.1% albumin.
Where [3] appears, read: cAMP EC50, nM (0.1% albumin), Table 3, 0.1% albumin.
Where [4] appears, read: cAMP EC50, nM (0.1% albumin), Table 1, 0.1% albumin.
The mark [5] stands for this setting: Table 5, 0% albumin, read-out: cAMP EC50, nM (0% albumin).

For orientation: EC50 means the concentration giving half of the maximal effect. With `C[C@@H](O)[C@H](NC(=O)CNC(=O)[C@H](CCC(=O)O)NC(=O)C(C)(C)NC(=O)[C@@H](N)Cc1c[nH]cn1)C(=O)N[C@@](C)(Cc1ccccc1F)C(=O)N[C@H](C(=O)N[C@@H](CO)C(=O)N[C@@H](CC(=O)O)C(=O)N[C@@H](Cc1ccc(-c2ccccc2)cc1)C(=O)N[C@@H](CCc1ccccc1)C(=O)NCCOCCOCC(=O)NCCOCCOCC(=O)NC[C@H](NC(=O)CCCCCCCCCCCCCCCCC(=O)O)C(=O)O)[C@@H](C)O` [4-36, H2N-His-Aib-Glu-Gly-Thr-α-MePhe(2-F)-Thr-Ser-Asp-Bip-Hph-C(O)NH-RY2] (H-H[Aib]EGT[αMePhe(2-F)]TSD[Bip][hPhe][AEEA][AEEA]-{Dap(Nα-HOOC(CH2)16CO)OH}), under setting [1], the EC50 was determined as 70.9 nM. Also, where the note is “relative to parent 1-4”, the “fold lower potency than the parent peptide (1-4)” value worked out at 15 fold. Under setting [2], `C[C@@H](O)[C@H](NC(=O)CNC(=O)[C@H](CCC(=O)O)NC(=O)C(C)(C)NC(=O)[C@@H](N)Cc1c[nH]cn1)C(=O)N[C@@](C)(Cc1ccccc1F)C(=O)N[C@@H](CC(N)=O)C(=O)N[C@@H](CO)C(=O)N[C@@H](CC(=O)O)C(=O)N[C@@H](Cc1ccc(-c2ccccc2)cc1)C(=O)N[C@@H](Cc1ccc(-c2ccccc2)cc1)C(N)=O` [3-62, H2N-His-Aib-Glu-Gly-Thr-α-MePhe(2-F)-Asn-Ser-Asp-Bip-Bip-C(O)NH2] (H-H[Aib]EGT[αMePhe(2-F)]NSD[Bip][Bip]-NH2) had an EC50 of 3.1 nM.

Regarding `C[C@@H](O)[C@H](NC(=O)CNC(=O)[C@H](CCC(=O)O)NC(=O)[C@]1(C)CCCN1C(=O)[C@@H](N)Cc1c[nH]cn1)C(=O)N[C@@](C)(Cc1ccccc1F)C(=O)N[C@H](C(=O)N[C@@H](CO)C(=O)N[C@@H](CC(=O)O)C(=O)N[C@@H](Cc1ccc(-c2ccccc2)cc1)C(=O)N[C@@H](Cc1ccc(-c2ccccc2)cc1)C(=O)NCCOCCOCC(=O)NCCOCCOCC(=O)NC[C@H](NC(=O)CCCCCCCCCCCCCCCCC(=O)O)C(=O)O)[C@@H](C)O` [4-60, H2N-His-α-MePro-Glu-Gly-Thr-α-MePhe(2-F)-Thr-Ser-Asp-Bip-Bip-C(O)NH-RY16] (H-H[αMeP]EGT[αMePhe(2-F)]TSD[Bip][Bip][AEEA][AEEA]-{Dap(Nα-HOOC(CH2)16CO)OH}), under setting [1], a half-maximal effect (EC50) was put at 2.2 nM.

Take `C[C@@H](O)[C@H](NC(=O)CNC(=O)[C@H](CCC(=O)O)NC(=O)C(C)(C)NC(=O)C(C)(C)N)C(=O)N[C@@](C)(Cc1ccccc1F)C(=O)N[C@H](C(=O)N[C@@H](CO)C(=O)N[C@@H](CC(=O)O)C(=O)N[C@@H](Cc1ccc(-c2ccccc2)cc1)C(=O)N[C@@H](Cc1ccc(-c2ccccc2)cc1)C(N)=O)[C@@H](C)O` [3-30, H2N-Aib-Aib-Glu-Gly-Thr-αMePhe(2-F)-Thr-Ser-Asp-Bip-Bip-C(O)NH2] (H-[Aib][Aib]EGT[αMePhe(2-F)]TSD[Bip][Bip]-NH2): under setting [3], a half-maximal effect (EC50) was put at 2.7 nM. `CC(C)[C@H](NC(=O)[C@@H](N)Cc1c[nH]cn1)C(=O)N[C@@H](CCC(=O)O)C(=O)NCC(=O)N[C@H](C(=O)N[C@@](C)(Cc1ccccc1F)C(=O)N[C@H](C(=O)N[C@@H](CO)C(=O)N[C@@H](CC(=O)O)C(=O)N[C@@H](Cc1ccc(-c2ccccc2)cc1)C(=O)N[C@@H](Cc1ccc(-c2ccccc2)cc1)C(N)=O)[C@@H](C)O)[C@@H](C)O` [3-39, H2N-His-Val-Glu-Gly-Thr-α-MePhe(2-F)-Thr-Ser-Asp-Bip-Bip-C(O)NH2] (H-HVEGT[αMePhe(2-F)]TSD[Bip][Bip]-NH2) registered an EC50 under setting [2] of 0.37 nM. Moreover, the “potency compared with the parent peptide analog (1-2)” value (replacement of Aib2, in words) was “slightly less potency”. Under setting [1], `C[C@@H](O)[C@H](NC(=O)CNC(=O)[C@H](CCC(=O)O)NC(=O)[C@]1(C)CCCN1C(=O)[C@@H](N)Cc1c[nH]cn1)C(=O)N[C@@](C)(Cc1ccccc1F)C(=O)N[C@H](C(=O)N[C@@H](CO)C(=O)N[C@@H](CC(=O)O)C(=O)N[C@@H](Cc1ccc(-c2ccccc2)cc1)C(=O)N[C@@H](Cc1ccc(-c2ccccc2)cc1)C(=O)N[C@@H](CCCCNC(=O)CC[C@H](NC(=O)CCCCCCCCCCCCCCCCC(=O)O)C(=O)O)C(N)=O)[C@@H](C)O` [4-69, H2N-His-α-MePro-Glu-Gly-Thr-α-MePhe(2-F)-Thr-Ser-Asp-Bip-Bip-C(O)NH-RY25] (H-H[αMeP]EGT[αMePhe(2-F)]TSD[Bip][Bip]K([γGlu-C18 diacid])-NH2) yielded an EC50 of 5.1 nM. The molecule `C[C@@H](O)[C@H](NC(=O)CNC(=O)[C@H](CCC(=O)O)NC(=O)C(C)(C)NC(=O)[C@@H](N)Cc1c[nH]cn1)C(=O)N[C@H](Cc1ccccc1)C(=O)N[C@H](C(=O)N[C@@H](CO)C(=O)N[C@@H](CC(=O)O)C(=O)N[C@@H](Cc1ccc(-c2ccccc2)cc1)C(=O)N[C@@H](Cc1ccc(-c2ccccc2)cc1)C(N)=O)[C@@H](C)O` [3-13, H2N-His-Aib-Glu-Gly-Thr-D-Phe-Thr-Ser-Asp-Bip-Bip-C(O)NH2] (H-H[Aib]EGT[dF]TSD[Bip][Bip]-NH2) showed an EC50 under setting [4] of 57 nM.

Turning to `C[C@H](NC(=O)[C@H](Cc1ccc(-c2ccccc2)cc1)NC(=O)[C@H](CC(=O)O)NC(=O)[C@H](CO)NC(=O)[C@@H](NC(=O)[C@H](Cc1ccccc1F)NC(=O)[C@@H](NC(=O)CNC(=O)[C@H](CCC(=O)O)NC(=O)C(C)(C)NC(=O)[C@@H](N)Cc1c[nH]cn1)[C@@H](C)O)[C@@H](C)O)C(N)=O` [3-29, H2N-His-Aib-Glu-Gly-Thr-Phe(2-F)-Thr-Ser-Asp-Bip-Ala-C(O)NH2], the EC50 (cAMP EC50, nM (0.1% albumin), Table 2, 0.1% albumin) was > 1000 nM. Take `C[C@@H](O)[C@H](NC(=O)CNC(=O)[C@H](CCC(=O)O)NC(=O)C(C)(C)NC(=O)[C@@H](N)Cc1c[nH]cn1)C(=O)N[C@@](C)(Cc1ccccc1F)C(=O)N[C@H](C(=O)N[C@@H](CO)C(=O)N[C@@H](CC(=O)O)C(=O)N[C@@H](Cc1ccc(-c2ccccc2)cc1)C(=O)N[C@@H](Cc1ccc(-c2ccccc2)cc1)C(=O)N[C@@H](CCCCNC(=O)COCCOCCNC(=O)COCCOCCNC(=O)COCCOCCNC(=O)CC[C@H](NC(=O)CCCCCCCCCCCCCCCCC(=O)O)C(=O)O)C(N)=O)[C@@H](C)O` [4-50, H2N-His-Aib-Glu-Gly-Thr-α-MePhe(2-F)-Thr-Ser-Asp-Bip-Bip-C(O)NH-RY12] (H-H[Aib]EGT[αMePhe(2-F)]TSD[Bip][Bip]K([AEEA-AEEA-AEEA-γGlu-C18 diacid])-NH2): the midpoint of the response under setting [1], the EC50, lay at 12 nM. For the molecule `C[C@@H](O)[C@H](NC(=O)CNC(=O)[C@H](CCC(=O)O)NC(=O)C(C)(C)NC(=O)[C@@H](N)Cc1c[nH]cn1)C(=O)N[C@@H](Cc1cccc(C(F)(F)F)c1)C(=O)N[C@H](C(=O)N[C@@H](CO)C(=O)N[C@@H](CC(=O)O)C(=O)N[C@@H](Cc1ccc(-c2ccccc2)cc1)C(=O)N[C@@H](Cc1ccc(-c2ccccc2)cc1)C(N)=O)[C@@H](C)O` [3-7, H2N-His-Aib-Glu-Gly-Thr-Phe(3-CF3)-Thr-Ser-Asp-Bip-Bip-C(O)NH2] (H-H[Aib]EGT[Phe(3-CF3)]TSD[Bip][Bip]-NH2), the EC50 under setting [4] was found to be 97.5 nM. Turning to `CC(C)C[C@H](NC(=O)[C@@H](N)Cc1ccccc1)C(=O)NC(C)(C)C(=O)N[C@@H](CCC(=O)O)C(=O)NCC(=O)N[C@H](C(=O)N[C@@](C)(Cc1ccccc1F)C(=O)N[C@H](C(=O)N[C@@H](CO)C(=O)N[C@@H](CC(=O)O)C(=O)N[C@@H](Cc1ccc(-c2ccccc2)cc1)C(=O)N[C@@H](Cc1ccc(-c2ccccc2)cc1)C(N)=O)[C@@H](C)O)[C@@H](C)O` [2-8, H2N-Phe-Leu-Aib-Glu-Gly-Thr-α-MePhe(2-F)-Thr-Ser-Asp-Bip-Bip-C(O)NH2] (H-FL[Aib]EGT[αMePhe(2-F)]TSD[Bip][Bip]-NH2), the EC50 under setting [2] worked out at 4.1 nM. Consider `C[C@@H](O)[C@H](NC(=O)CNC(=O)[C@H](CCC(=O)O)NC(=O)C(C)(C)NC(=O)[C@@H](N)Cc1c[nH]cn1)C(=O)N[C@@](C)(Cc1ccccc1F)C(=O)N[C@H](C(=O)N[C@@H](CO)C(=O)N[C@@H](CC(=O)O)C(=O)N[C@@H](Cc1ccc(-c2ccccc2)cc1)C(=O)N[C@@H](Cc1ccc(-c2ccccc2)cc1)C(=O)N[C@@H](CCCCNC(=O)COCCOCCNC(=O)CC[C@H](NC(=O)CCCCCCCCCCCCCCCCC(=O)O)C(=O)O)C(N)=O)[C@@H](C)O` [4-48, H2N-His-Aib-Glu-Gly-Thr-α-MePhe(2-F)-Thr-Ser-Asp-Bip-Bip-C(0)NH-RY10] (H-H[Aib]EGT[αMePhe(2-F)]TSD[Bip][Bip]K([AEEA-γGlu-C18 diacid])-NH2), for which a half-maximal effect under setting [1] (EC50) was put at 9.7 nM. As to `C[C@@H](O)[C@H](NC(=O)CNC(=O)[C@H](CCC(=O)O)NC(=O)C(C)(C)NC(=O)[C@@H](N)Cc1c[nH]cn1)C(=O)N[C@@](C)(Cc1ccccc1F)C(=O)N[C@H](C(=O)N[C@@H](CO)C(=O)N[C@@H](CC(=O)O)C(=O)N[C@@H](Cc1ccc(-c2ccccc2)cc1)C(=O)N[C@@H](Cc1ccc(-c2ccccc2)cc1)C(N)=O)[C@@H](C)O` [1-2, H2N-His-Aib-Glu-Gly-Thr-α-MePhe(2-F)-Thr-Ser-Asp-Bip-Bip-C(O)NH2] (H-H[Aib]EGT[αMePhe(2-F)]TSD[Bip][Bip]-NH2), the EC50 is 0.09 nM under setting [5]; 0.09 nM under setting [4]; 0.09 nM under setting [3]; 0.09 nM under setting [2]; 0.09 nM under setting [1]. Regarding `C[C@@H](O)[C@H](NC(=O)CNC(=O)[C@H](CCC(=O)O)NC(=O)C(C)(C)NC(=O)[C@@H](N)Cc1c[nH]cn1)C(=O)N[C@@H](Cc1ccccc1)C(=O)N[C@H](C(=O)N[C@@H](CO)C(=O)N[C@@H](CC(=O)O)C(=O)N[C@@H](Cc1ccc(-c2ccccc2)cc1)C(=O)N[C@@H](Cc1ccc(-c2ccccc2)cc1)C(N)=O)[C@@H](C)O` [1-1, H2N-His-Aib-Glu-Gly-Thr-Phe-Thr-Ser-Asp-Bip-Bip-C(O)NH2] (H-H[Aib]EGTFTSD[Bip][Bip]-NH2), the EC50 worked out at 6.82 nM under setting [5] and 6.82 nM under setting [4].
